Source: patent publication US20250120981A1, “MRTX1133 PHARMACEUTICAL COMPOSITIONS” (MIRATI THERAPEUTICS, INC., priority 2023, published 2025)
Where two headings read alike, the source gives them in different places.

Assay: Pharmacokinetics in humans, MRTX1133 formulation, oral, single and multiple doses
Assay type: in vivo
Conditions: for increase in the mean exposure: dose increased from 200 mg BID to 400 mg BID; for concentration at 0 h / concentration at 0.5 h / concentration at 1 h / concentration at 1.5 h / concentration at 2 h / concentration at 4 h / concentration at 6 h / concentration at 8 h / concentration at 12 h / concentration at 24 h / AUC(0-t) / Cmax / Tmax / AUC0-inf / concentration at 3 h / concentration at 5 h / concentration at 48 h / concentration at 72 h / concentration at 96 h / half-life: human, plasma, po; for AUC0-inf: read-out: AUC0-inf, Geo Mean
Experimental: The pharmacokinetics [PK] of the MRTX1133 formulation after oral administration has been evaluated in 25 subjects across 3 escalating dose frequencies under fasting conditions (200 mg twice daily [BID], 400 mg BID, and 800 mg BID), as well as evaluation of 400 mg BID when administered with a low-fat meal (i.e., under fed conditions). The mean (+standard deviation) single-dose and multiple-dose pharmacokinetic profiles of the evaluated doses are presented in FIG. 9 and FIG. 10, respectively. Individual single- and multiple-dose PK profiles can be found in FIG. 11. For all figures, the X-axis represents nominal time of sample collection (hours [h]) and the Y-axis represents plasma concentration (ng/mL). Table 10 lists PK data following the oral administration of a single dose and multiple doses of MRTX1133 formulation by dose level and subject.

[1] = 200 mg, multiple oral doses of 200 mg BID, fasted, mean of subjects, read-out: Plasma concentration, Mean
[2] = 200 mg, single oral dose of 200 mg, fasted, mean of subjects, read-out: Plasma concentration, Mean
[3] = 400 mg, multiple oral doses of 400 mg BID with a low-fat meal, mean of subjects, read-out: Plasma concentration, Mean
[4] = 400 mg, multiple oral doses of 400 mg BID with a low-fat meal, mean of subjects
[5] = 400 mg, multiple oral doses of 400 mg BID, fasted, mean of subjects, read-out: Plasma concentration, Mean
[6] = 400 mg, single oral dose of 400 mg with a low-fat meal, mean of subjects, read-out: Plasma concentration, Mean
[7] = 400 mg, single oral dose of 400 mg with a low-fat meal, mean of subjects
[8] = 400 mg, single oral dose of 400 mg with a low-fat meal, individual subjects, read-out: Plasma concentration
[9] = 400 mg, single oral dose of 400 mg, fasted, mean of subjects, read-out: Plasma concentration, Mean
[10] = 400 mg, single oral dose of 400 mg, fasted, individual subjects, read-out: Plasma concentration
[11] = 800 mg, multiple oral doses of 800 mg BID, fasted, Mean of subjects, read-out: Plasma concentration

C#Cc1c(F)ccc2cc(O)cc(-c3ncc4c(N5C[C@H]6CC[C@@H](C5)N6)nc(OC[C@@]56CCCN5C[C@H](F)C6)nc4c3F)c12 [MRTX1133, 4-(4-((1R,5S)-3,8-diazabicyclo[3.2.1]octan-3-yl)-8-fluoro-2-(((2R,7aS)-2-fluorohexahydro-1Hpyrrolizin-7a-yl)methoxy)pyrido[4,3-d]pyrimidin-7-yl)-5-ethynyl-6-fluoronaphthalen-2-ol]
increase in the mean exposure (fasted, multiple doses): ~4.4 fold | increase in the mean exposure (fasted, single dose): approximately 1.8 fold | change of mean single- and multiple-dose exposure (dose increased from 400 mg BID to 800 mg BID, fasted): did not change in a clinically meaningful manner | concentration at 0 h [1]: 5.33 ng/mL | concentration at 0.5 h [1]: 28.1 ng/mL | concentration at 1 h [1]: 31.1 ng/mL | concentration at 1.5 h [1]: 33.1 ng/mL | concentration at 2 h [1]: 20.1 ng/mL | concentration at 4 h [1]: 6.62 ng/mL | concentration at 6 h [1]: 3.85 ng/mL | concentration at 8 h [1]: 2.79 ng/mL | concentration at 12 h [1]: 2.46 ng/mL | concentration at 24 h (200 mg, multiple oral doses of 200 mg BID, fasted, individual subjects, sample taken after PM dose, read-out: Plasma concentration): 0.73 ng/mL | AUC(0-t) (200 mg, multiple oral doses of 200 mg BID, fasted, geometric mean of subjects, read-out: AUC0-12, Geo Mean): 93.1 ng·h/mL | AUC(0-t) (200 mg, multiple oral doses of 200 mg BID, fasted, geometric mean of subjects, read-out: AUC0-last, Geo Mean): 75.2 ng·h/mL | Cmax (200 mg, multiple oral doses of 200 mg BID, fasted, geometric mean of subjects, read-out: Cmax, Geo Mean): 36 ng/mL | Tmax (200 mg, multiple oral doses of 200 mg BID, fasted, median of subjects (footnote b), read-out: Tmax, Median): 1.5 h | concentration at 0.5 h [2]: 11.1 ng/mL | concentration at 1 h [2]: 44.3 ng/mL | concentration at 1.5 h [2]: 39 ng/mL | concentration at 2 h [2]: 39.3 ng/mL | concentration at 4 h [2]: 30.4 ng/mL | concentration at 6 h [2]: 11.9 ng/mL | concentration at 8 h [2]: 6.58 ng/mL | concentration at 12 h [2]: 4.44 ng/mL | concentration at 24 h [2]: 0.521 ng/mL | AUC(0-t) (200 mg, single oral dose of 200 mg, fasted, geometric mean of subjects, read-out: AUC0-12, Geo Mean): 148 ng·h/mL | AUC0-inf (200 mg, single oral dose of 200 mg, fasted, geometric mean of subjects): 165 ng·h/mL | AUC(0-t) (200 mg, single oral dose of 200 mg, fasted, geometric mean of subjects, read-out: AUC0-last, Geo Mean): 151 ng·h/mL | Cmax (200 mg, single oral dose of 200 mg, fasted, geometric mean of subjects, read-out: Cmax, Geo Mean): 59.8 ng/mL | Tmax (200 mg, single oral dose of 200 mg, fasted, median of subjects (footnote b), read-out: Tmax, Median): 1.5 h | concentration at 0 h [3]: 16.7 ng/mL | concentration at 1 h [3]: 138 ng/mL | concentration at 2 h [3]: 66.7 ng/mL | concentration at 3 h [4]: 55.1 ng/mL | concentration at 4 h [3]: 100 ng/mL | concentration at 5 h [4]: 39.8 ng/mL | concentration at 6 h [3]: 30 ng/mL | concentration at 8 h [3]: 23 ng/mL | concentration at 12 h [3]: 17.3 ng/mL | AUC(0-t) (400 mg, multiple oral doses of 400 mg BID with a low-fat meal, geometric mean of subjects, read-out: AUC0-12, Geo Mean): 310 ng·h/mL | AUC(0-t) (400 mg, multiple oral doses of 400 mg BID with a low-fat meal, geometric mean of subjects, read-out: AUC0-last, Geo Mean): 310 ng·h/mL | Cmax (400 mg, multiple oral doses of 400 mg BID with a low-fat meal, geometric mean of subjects, read-out: Cmax, Geo Mean): 102 ng/mL | Tmax (400 mg, multiple oral doses of 400 mg BID with a low-fat meal, median of subjects (footnote b), read-out: Tmax, Median): 1 h | concentration at 0 h [5]: 19.4 ng/mL | concentration at 0.5 h [5]: 72.7 ng/mL | concentration at 1 h [5]: 85.9 ng/mL | concentration at 1.5 h [5]: 64.6 ng/mL | concentration at 2 h [5]: 48.5 ng/mL | concentration at 4 h [5]: 77.3 ng/mL | concentration at 6 h [5]: 63.4 ng/mL | concentration at 8 h [5]: 40.3 ng/mL | concentration at 12 h [5]: 27.8 ng/mL | AUC(0-t) (400 mg, multiple oral doses of 400 mg BID, fasted, geometric mean of subjects, read-out: AUC0-12, Geo Mean): 410 ng·h/mL | AUC(0-t) (400 mg, multiple oral doses of 400 mg BID, fasted, geometric mean of subjects, read-out: AUC0-last, Geo Mean): 410 ng·h/mL | Cmax (400 mg, multiple oral doses of 400 mg BID, fasted, geometric mean of subjects, read-out: Cmax, Geo Mean): 111 ng/mL | Tmax (400 mg, multiple oral doses of 400 mg BID, fasted, median of subjects (footnote b), read-out: Tmax, Median): 1 h | concentration at 1 h [6]: 46.7 ng/mL | concentration at 2 h [6]: 43.6 ng/mL | concentration at 3 h [7]: 43.7 ng/mL | concentration at 4 h [6]: 59.7 ng/mL | concentration at 5 h [7]: 53.9 ng/mL | concentration at 6 h [6]: 43.6 ng/mL | concentration at 8 h [6]: 20.4 ng/mL | concentration at 12 h [6]: 11.3 ng/mL | concentration at 24 h [8]: 7.59 ng/mL | concentration at 24 h [6]: 7.59 ng/mL | concentration at 48 h [8]: 3.13 ng/mL | concentration at 48 h [6]: 3.13 ng/mL | concentration at 72 h [8]: 2.13 ng/mL | concentration at 72 h [6]: 2.13 ng/mL | concentration at 96 h [8]: 1.12 ng/mL | concentration at 96 h [6]: 1.12 ng/mL | AUC(0-t) (400 mg, single oral dose of 400 mg with a low-fat meal, geometric mean of subjects, read-out: AUC0-12, Geo Mean): 256 ng·h/mL | AUC0-inf (400 mg, single oral dose of 400 mg with a low-fat meal, geometric mean of subjects): 300 ng·h/mL | AUC(0-t) (400 mg, single oral dose of 400 mg with a low-fat meal, geometric mean of subjects, read-out: AUC0-last, Geo Mean): 277 ng·h/mL | Cmax (400 mg, single oral dose of 400 mg with a low-fat meal, geometric mean of subjects, read-out: Cmax, Geo Mean): 66.6 ng/mL | half-life (400 mg, single oral dose of 400 mg with a low-fat meal, geometric mean of subjects, read-out: T1/2, Geo Mean (converted)): 27.2 h | half-life (400 mg, single oral dose of 400 mg with a low-fat meal, individual subjects, read-out: T1/2 (converted)): 27.2 h | Tmax (400 mg, single oral dose of 400 mg with a low-fat meal, median of subjects (footnote b), read-out: Tmax, Median): 4 h | concentration at 0.5 h [9]: 42.7 ng/mL | concentration at 1 h [9]: 52.2 ng/mL | concentration at 1.5 h [9]: 48.9 ng/mL | concentration at 2 h [9]: 83.3 ng/mL | concentration at 4 h [9]: 64.4 ng/mL | concentration at 6 h [9]: 34.5 ng/mL | concentration at 8 h [9]: 23 ng/mL | concentration at 12 h [9]: 11.9 ng/mL | concentration at 24 h [10]: 3.75 ng/mL | concentration at 24 h [9]: 3.75 ng/mL | concentration at 48 h [10]: 1.46 ng/mL | concentration at 48 h [9]: 1.46 ng/mL | concentration at 72 h [10]: 0.872 ng/mL | concentration at 72 h [9]: 0.872 ng/mL | concentration at 96 h [10]: 0.538 ng/mL | concentration at 96 h [9]: 0.538 ng/mL | AUC(0-t) (400 mg, single oral dose of 400 mg, fasted, geometric mean of subjects, read-out: AUC0-12, Geo Mean): 263 ng·h/mL | AUC0-inf (400 mg, single oral dose of 400 mg, fasted, geometric mean of subjects): 304 ng·h/mL | AUC(0-t) (400 mg, single oral dose of 400 mg, fasted, geometric mean of subjects, read-out: AUC0-last, Geo Mean): 278 ng·h/mL | Cmax (400 mg, single oral dose of 400 mg, fasted, geometric mean of subjects, read-out: Cmax, Geo Mean): 86.2 ng/mL | half-life (400 mg, single oral dose of 400 mg, fasted, geometric mean of subjects, read-out: T1/2, Geo Mean (converted)): 33.3 h | half-life (400 mg, single oral dose of 400 mg, fasted, individual subjects, read-out: T1/2 (converted)): 33.3 h | Tmax (400 mg, single oral dose of 400 mg, fasted, median of subjects (footnote b), read-out: Tmax, Median): 2 h | concentration at 0 h [11]: 20.6 ng/mL | concentration at 0.5 h [11]: 97.2 ng/mL | concentration at 1 h [11]: 137 ng/mL | concentration at 1.5 h [11]: 107 ng/mL | concentration at 2 h [11]: 122 ng/mL | concentration at 4 h [11]: 138 ng/mL | concentration at 6 h [11]: 107 ng/mL | concentration at 8 h [11]: 56.2 ng/mL | concentration at 12 h [11]: 14.7 ng/mL | AUC(0-t) (800 mg, multiple oral doses of 800 mg BID, fasted, Geo Mean of subjects, read-out: AUC0-12): 347 ng·h/mL | AUC(0-t) (800 mg, multiple oral doses of 800 mg BID, fasted, Geo Mean of subjects, read-out: AUC0-last): 477 ng·h/mL | Cmax (800 mg, multiple oral doses of 800 mg BID, fasted, Geo Mean of subjects, read-out: Cmax): 99.5 ng/mL | Tmax (800 mg, multiple oral doses of 800 mg BID, fasted, Median of subjects, read-out: Tmax): 2 h
